The record followed here is patent publication US20120071522A1, “THERMAL STABILIZATION OF BIOCIDES IN MATRIX COMPOSITIONS PROCESSED AT ELEVATED TEMPERATURES” (priority 2004, published 2012).

The data set is described as follows: Thermal stability (color change) of biocide in polyethylene and wood-plastic composite matrixes processed at elevated temperatures. Type of data set: physicochemical.

For `CCCCNC(=O)OCC#CI` [IPBC], the color change entry is “no color change”.

Consider `O=C1c2ccccc2C(=O)N1SC(Cl)(Cl)Cl` [Fungitrol® 11, N-(trichloromethylthio) phthalimide], for which the color change entry was “no color change”.
